Test results as given in US7161029B2, “DiL-lysine monosulfate trihydrate crystal and method of making” (Ajinomoto Co., Inc., priority 2003, dated 2007).

Experiments:
[1] = temperature range at which the trihydrate precipitates (35° C. and below)
Piglets = settings: compared with L-lysine hydrochloride; cited from earlier work

SMILES	degree of solubility in water versus the solubility curve of anhydrous diL-lysine sulfate (FIG. 4) [1]	feed effects (Piglets)
NCCCC[C@H](N)C(=O)O.NCCCC[C@H](N)C(=O)O.O.O.O.O=S(=O)(O)O [diL-lysine monosulfate trihydrate]	lower than the degree of solubility that would be anticipated from the solubility curve of anhydrous diL-lysine sulfate	–
NCCCC[C@H](N)C(=O)O.NCCCC[C@H](N)C(=O)O.O=S(=O)(O)O [diL-lysine sulfate]	–	equivalent to those of L-lysine hydrochloride
